Reference: patent US7659270B2, “Hepatitis C virus inhibitors” (Bristol-Myers Squibb Company, priority 2006, dated 2010)

Each compound was assayed on HCV 1b-377-neo replicon cells (assay: HCV replicon assay (HCV 1b-377-neo replicon cells)). Conditions: Hepatitis C virus, read-out: EC50 range against HCV 1b (Range).
Format: cell-based, Hepatitis C virus genotype 1b
Procedure: An HCV Replion assay was utilized in the present disclosure, and was prepared, conducted and validated as described in commonly owned PCT/US2006/022197 and in O'Boyle et. al. Antimicrob Agents Chemother. April 2005;49(4): 1346-53.
HCV 1b-377-neo replicon cells were used to test the currently described compound series as well as cells resistant to compound A due to a Y2065H mutation in NS5A (described in application PCT/US2006/022197). The compounds tested were determined to have more than 10-fold less inhibitory activity on cells resistant to compound A than wild-type cells indicating a related mechanism of action between the two compound series. Thus, the compounds of the present disclosure can be effective to inhibit the function of the HCV NS5A protein and are understood to be as effective in combinations as previously described in application PCT/US2006/022197 and commonly owned WO/04014852. Further, the compounds of the present disclosure can be effective against the HCV 1b genotype. It should also be understood that the compounds of the present disclosure can inhibit multiple genotypes of HCV. […] In one embodiment compounds of the present disclosure are active against the 1a, 1b, 2a, 2b, 3a, 4a, and 5a genotypes.
`CN(C)[C@@H](C(=O)N1CCC[C@H]1c1ncc(-c2ccc(-c3ccc(-c4cnc([C@@H]5CCCN5C(=O)[C@@H](c5ccccc5)N(C)C)[nH]4)cc3)cc2)[nH]1)c1ccccc1` [Example 1, (1R,1′R)-2,2′-(4,4′-biphenyldiylbis(1H-imidazole-5,2-diyl(2S)-2,1-pyrrolidinediyl))bis(N,N-dimethyl-2-oxo-1-phenylethanamine)] gave an EC50 of 10 to 999 pM.
`COC(=O)N[C@@H](C(=O)N(C)[C@@H](C)c1ncc(-c2ccc(-c3ccc(-c4cnc([C@H](C)N(C)C(=O)[C@H](NC(=O)OC)c5ccccc5)[nH]4)cc3)cc2)[nH]1)c1ccccc1` [Example 24-18-1, dimethyl (4,4′-biphenyl-diylbis(1H-imidazole-5,2-diyl(1S)-1,1-ethane-diyl(methyli-mino)(1R)-2-oxo-1-phenyl-2,1-ethane-diyl)))biscar-bamate] showed an EC50 of 10 to 999 pM.
Compound `C[C@@H](c1ncc(-c2ccc(-c3ccc(-c4cnc([C@H](C)N(C)C(=O)[C@@H](c5ccccc5)N(C)C)[nH]4)cc3)cc2)[nH]1)N(C)C(=O)[C@@H](c1ccccc1)N(C)C` [Example 24-18-2, (2R,2′R)-N,N′-(4,4′-biphenyl-diylbis(1H-imidazole-5,2-diyl(1S)-1,1-ethane-diyl))bis(2-(dimethyl-amino)-N-methyl-2-phenyl-acetamide)] has an EC50 of 10 to 999 pM.
`C[C@@H](c1ncc(-c2ccc(-c3ccc(-c4cnc([C@H](C)N(C)C(=O)[C@@H](c5ccccc5)N5CCCCC5)[nH]4)cc3)cc2)[nH]1)N(C)C(=O)[C@@H](c1ccccc1)N1CCCCC1` [Example 24-18-3, (2R,2′R)-N,N′-(4,4′-biphenyl-diylbis(1H-imidazole-5,2-diyl(1S)-1,1-ethane-diyl))bis(N-meth-yl-2-phenyl-2-(1-piperi-dinyl)acet-amide)] was tested, and the EC50 was 10 to 999 pM.
`COC(=O)N[C@@H](C(=O)N(C)[C@@H](C)c1ncc(-c2ccc(-c3ccc(-c4cnc([C@@H]5CCCN5C(=O)[C@H](NC(=O)OC)c5ccccc5)[nH]4)cc3)cc2)[nH]1)c1ccccc1` [Example 24-18-4, methyl ((1R)-2-((2S)-2-(5-(4′-(2-((1S)-1-(((2R)-2-((methoxy-carbonyl)a-mino)-2-phenyl-acetyl)(meth-yl)ami-no)ethyl)-1H-imidazol-5-yl)-4-bi-phenylyl)-1H-imidazol-2-yl)-1-pyrrolidi-nyl)-2-oxo-1-phenyl-ethyl)carba-mate] showed an EC50 of 10 to 999 pM.
For `C[C@@H](c1ncc(-c2ccc(-c3ccc(-c4cnc([C@@H]5CCCN5C(=O)[C@@H](c5ccccc5)N(C)C)[nH]4)cc3)cc2)[nH]1)N(C)C(=O)[C@@H](c1ccccc1)N(C)C` [Example 24-18-5, (2R)-2-(dimethyl-amino)-N-((1S)-1-(5-(4′-(2-((2S)-1-((2R)-2-(dimethyl-amino)-2-phenyl-acetyl)-2-pyrroli-dinyl)-1H-imida-zol-5-yl)-4-biphenyl-yl)-1H-imidazol-2-yl)ethyl)-N-methyl-2-phenyl-acetamide], the EC50 was 10 to 999 pM.
In the case of `COC(=O)N[C@@H](C(=O)N1CCC[C@H]1c1ncc(-c2ccc(-c3ccc(-c4cnc([C@@H]5CCCN5C(=O)Cc5ccccc5)[nH]4)cc3)cc2)[nH]1)c1ccccc1` [Example 28, methyl((1R)-2-oxo-1-phenyl-2-((2S)-2-(5-(4′-(2-((2S)-1-(phenylacetyl)-2-pyrrolidinyl)-1H-imidazol-5-yl)-4-biphenylyl)-1H-imidazol-2-yl)-1-pyrrolidinyl)ethyl)carbamate], the EC50 is reported as 1000 to 99000 pM.
`Cc1cc(-c2cnc([C@@H]3CCCN3C(=O)[C@@H](c3ccccc3)N(C)C)[nH]2)ccc1-c1ccc(-c2cnc([C@@H]3CCCN3C(=O)[C@@H](c3ccccc3)N(C)C)[nH]2)cc1C` [Example 121, (1R,1′R)-2,2′-((2,2′-dimethyl-4,4′-biphenyldiyl)bis(1H-imidazole-5,2-diyl(2S)-2,1-pyrrolidinediyl))bis(N,N-dimethyl-2-oxo-1-phenylethanamine)] was tested, and the EC50 was 10 to 999 pM.
With `COC(=O)N[C@@H](C(=O)N1CCC[C@H]1c1ncc(-c2ccc(-c3ccc(-c4cnc([C@@H]5CCCN5C(=O)Cc5cccnc5)[nH]4)cc3C)cc2)[nH]1)c1ccccc1` [Example 127, methyl ((1R)-2-((2S)-2-(5-(2′-methyl-4′-(2-((2S)-1-(3-pyridinylacetyl)-2-pyrrolidinyl)-1H-imidazol-5-yl)-4-biphenylyl)-1H-imidazol-2-yl)-1-pyrrolidinyl)-2-oxo-1-phenylethyl)carbamate] the EC50 was 10 to 999 pM.
`COC(=O)N[C@@H](C(=O)N1CCC[C@H]1c1ncc(-c2ccc(-c3ccc(-c4cnc([C@@H]5CCCN5C(=O)[C@@H]5CCCO5)[nH]4)cc3C)cc2)[nH]1)c1ccccc1` [Example 128, methyl ((1R)-2-((2S)-2-(5-(2′-methyl-4′-(2-((2S)-1-((2S)-tetrahydro-2-furanylcarbonyl)-2-pyrrolidinyl)-1H-imidazol-5-yl)-4-biphenylyl)-1H-imidazol-2-yl)-1-pyrrolidinyl)-2-oxo-1-phenylethyl)carbamate] showed an EC50 of 10 to 999 pM.
In the case of `CN(C)[C@@H](C(=O)N1CCC[C@H]1c1ncc(-c2ccc(-c3ccc(-c4cnc([C@@H]5CCCN5C(=O)[C@@H](c5ccccc5)N(C)C)[nH]4)cc3C(F)(F)F)cc2)[nH]1)c1ccccc1` [Example 130, (1R,1′R)-2,2′-((2-(trifluoromethyl)-4,4′-biphenyldiyl)bis(1H-imidazole-5,2-diyl(2S)-2,1-pyrrolidinediyl))bis(N,N-dimethyl-2-oxo-1-phenylethanamine)], the EC50 is reported as 10 to 999 pM.
`COC(=O)N[C@@H](C(=O)N(C)[C@@H](C)c1ncc(-c2ccc(-c3ccc(-c4cnc([C@@H]5CCCN5C(=O)[C@@H](c5ccccc5)N(C)C)[nH]4)cc3)cc2)[nH]1)c1ccccc1` [Example 131.1-1, methyl((1R)-2-(((1S)-1-(5-(4′-(2-((2S)-1-((2R)-2-(dimethylamino)-2-phenylacetyl)-2-pyrrolidinyl)-1H-imidazol-5-yl)-4-biphenylyl)-1H-imidazol-2-yl)ethyl)(methyl)amino)-2-oxo-1-phenylethyl)carbamate] was tested, and the EC50 was 10 to 999 pM.
`COC(=O)N[C@@H](C(=O)N(C)[C@@H](C)c1ncc(-c2ccc(-c3ccc(-c4cnc([C@@H]5CCCN5C(=O)[C@@H](c5ccccc5)N5CCCCC5)[nH]4)cc3)cc2)[nH]1)c1ccccc1` [Example 131.1-2, methyl((1R)-2-(methyl((1S)-1-(5-(4′-(2-((2S)-1-((2R)-2-phenyl-2-(1-piperidinyl)acetyl)-2-pyrrolidinyl)-1H-imidazol-5-yl)-4-biphenylyl)-1H-imidazol-2-yl)ethyl)amino)-2-oxo-1-phenylethyl)carbamate] showed an EC50 of 10 to 999 pM.
With `CN(C)[C@@H](C(=O)N1CCC[C@H]1c1ncc(-c2ccc(-c3ccc(-c4cnc([C@@H]5CCCN5C(=O)[C@@H](c5ccccc5)N(C)C)[nH]4)cn3)cc2)[nH]1)c1ccccc1` [Example 132, (1R)-2-((2S)-2-(5-(6-(4-(2-((2S)-1-((2R)-2-(dimethylamino)-2-phenylacetyl)-2-pyrrolidinyl)-1H-imidazol-5-yl)phenyl)-3-pyridinyl)-1H-imidazol-2-yl)-1-pyrrolidinyl)-N,N-dimethyl-2-oxo-1-phenylethanamine] the EC50 was 10 to 999 pM.
`O=C([C@H](O)c1ccccc1)N1CCC[C@H]1c1ncc(-c2ccc(-c3ccc(-c4cnc([C@@H]5CCCN5C(=O)[C@H](O)c5ccccc5)[nH]4)cn3)cc2)[nH]1` [Example 133, (1R)-2-((2S)-2-(5-(6-(4-(2-((2S)-1-((2R)-2-hydroxy-2-phenylacetyl)-2-pyrrolidinyl)-1H-imidazol-5-yl)phenyl)-3-pyridinyl)-1H-imidazol-2-yl)-1-pyrrolidinyl)-2-oxo-1-phenylethanol] gave an EC50 of 1000 to 99000 pM.
`COC(=O)N[C@@H](C(=O)N1CCC[C@H]1c1ncc(-c2ccc(-c3ccc(-c4cnc([C@@H]5CCCN5C(=O)[C@H](NC(=O)OC)c5ccccc5)[nH]4)cn3)cc2)[nH]1)c1ccccc1` [Example 134, methyl ((1R)-2-((2S)-2-(5-(6-(4-(2-((2S)-1-((2R)-2-((methoxycarbonyl)amino)-2-phenylacetyl)-2-pyrrolidinyl)-1H-imidazol-5-yl)phenyl)-3-pyridinyl)-1H-imidazol-2-yl)-1-pyrrolidinyl)-2-oxo-1-phenylethyl)carbamate] gave an EC50 of 10 to 999 pM.

Same assay, conditions: listed as 151 isomer 1, read-out: EC50 range against HCV 1b (Range)
`CN(C)[C@@H](C(=O)N1CCC[C@H]1c1nc(-c2ccc(-c3ccc(-c4cn(C)c([C@@H]5CCCN5C(=O)[C@@H](c5ccccc5)N(C)C)n4)cc3)cc2)cn1C)c1ccccc1` (single isomer, unassigned) [Example 151 isomer 1] was tested, and the EC50 was 1000 to 99000 pM.

Same assay, conditions: listed as 151 isomer 2, read-out: EC50 range against HCV 1b (Range)
With `CN(C)[C@@H](C(=O)N1CCC[C@H]1c1nc(-c2ccc(-c3ccc(-c4cn(C)c([C@@H]5CCCN5C(=O)[C@@H](c5ccccc5)N(C)C)n4)cc3)cc2)cn1C)c1ccccc1` (single isomer, unassigned) [Example 151 isomer 2] the EC50 was 100000 to 999000 pM.

Same assay, conditions: read-out: EC50 range against HCV 1b (Range)
In the case of `COC(=O)N[C@@H](C(=O)N1CCC[C@H]1c1ncc(-c2ccc(-c3ccc(-c4cnc([C@@H]5CCCN5C(=O)[C@@H](c5ccccc5)N(C)C)[nH]4)cc3C)cc2)[nH]1)c1ccccc1` [Example 126, methyl ((1R)-2-((2S)-2-(5-(4′-(2-((2S)-1-((2R)-2-(dimethylamino)-2-phenylacetyl)-2-pyrolidinyl)-1H-imidazol-5-yl)-2′-methyl-4-biphenylyl)-1H-imidazol-2-yl)-1-pyrrolidinyl)-2-oxo-1-phenylethyl)carbamate], the EC50 is reported as 10 to 999 pM.
